Data: publication PMC8795197, “Safety and activity of WX-0593 (Iruplinalkib) in patients with ALK- or ROS1-rearranged advanced non-small cell lung cancer: a phase 1 dose-escalation and dose-expansion trial” (Signal Transduction and Targeted Therapy, 2022)
“And” between values parts separate entries of the source, which are not always exact repeats. Equal entries are not always repeated. “Also recorded” adds a separate entry of the source. Where two headings read alike, the source gives them in different places.

Key:
[1] = Absorption study (IV and oral PK); assay type: in vivo, cynomolgus monkeys; settings: for bioavailability: read-out: absolute bioavailability
Description: Rats and cynomolgus monkeys were selected for the absorption studies based on the "Guidance on the non-clinical pharmacokinetics of medicinal products" (CFDA, 2014) and the in vitro study of species differences in liver microsomes and hepatocyte metabolism.
In general, within the range of 0.5 mg/kg–8 mg/kg, the systemic exposure in male cynomolgus monkeys increased proportionately with the dose, while increased slightly faster than the dose in female cynomolgus monkeys.

[2] = tested on: Ba/F3 SLC34A2-ROS1-G2032R; experiment: Growth of transfected Ba/F3 cells (CellTiter-Glo, 3 days); assay type: cell-based; settings: Mus musculus, BaF3
Description: (§1) Harvest cells during the logarithmic growth period and count cells using blood counting chamber. Adjust cell concentration with culture medium. Add 90µl cell suspensions to two 96-well plates to the final cell density as described before. Incubate the plate overnight in humidified incubator at 37℃ with 5% CO2. Dispense 10µl drug solution (10×) to each well (triplicate for each concentration), and the DMSO final concentration in culture medium is 0.1% [v/v]. Culture the plates for 3 days.On Day 3, Read luminescent using Multi Label Reader. The software of GraphPad Prism was used to calculate IC50. The graphical curves were fitted using a nonlinear regression model with a sigmoidal dose response.

Ba/F3 CD74-ROS1-S1986F = experiment: as above; assay type: cell-based; settings: Mus musculus, BaF3
Description: as §1

Ba/F3 CD74-ROS1-S1986Y = experiment: as above; assay type: cell-based; settings: Mus musculus, BaF3
Description: as §1

[3] = tested on: NCI-H1975 (EGFR mutant L858R/T790M); experiment: Cell proliferation inhibition assay; assay type: cell-based
[4] = tested on: advanced NSCLC patients with ALK or ROS1 rearrangement; experiment: Phase 1 trial: safety (adverse events, DLT, MTD; NCI CTCAE 4.03); assay type: in vivo
Description: This FIH, single arm, multicenter, phase 1 study was conducted in advanced NSCLC patients with ALK or ROS1 rearrangement, composed of the dose-escalation and dose-expansion phases. The dose-escalation and dose-expansion phases were conducted at 4 and 38 centers in mainland China, respectively (Supplementary Table S1), and were done in compliance with the Declaration of Helsinki and International Council for Harmonisation guidelines for Good Clinical Practice. The study protocol and amendments were approved by the independent ethics committee at every participating site. Written informed consent was provided by all patients before being screened for enrolment.
ALK and ROS1 rearrangements were established by immunohistochemistry, reverse transcription-polymerase chain reaction (PCR), amplification refractory mutation system-PCR, fluorescence in situ hybridization, or next-generation sequencing. Patients must have at least one measurable lesion as defined by Response Evaluation Criteria in Solid Tumors (RECIST) version 1.1. Other key eligibility criteria included an age of 18–70 years, an Eastern Cooperative Oncology Group performance status of 0 or 1, a life expectancy of at least 12 weeks, and adequate organ function, including adequate function of bone marrow (absolute neutrophil count ≥1.5 × 10^9/L, platelets ≥100 × 10^9/L, hemoglobin ≥90 g/L) and liver function (total bilirubin ≤1.5× upper limit of normal [ULN], ALT and AST ≤2.5× ULN [≤5.0× ULN for liver metastasis patients]).
In the dose-escalation phase, a standard 3 + 3 design was used to determine the MTD.[29]
Three patients were assigned to each dose level.
Patients continued treatment until documented disease progression, unacceptable toxicity, withdrawal of consent, the start of a new anticancer treatment, death, loss of follow-up, or end of the study (whichever occurred first). Patients were permitted to continue treatment after progression if they were still experiencing clinical benefit, at the discretion of the investigator.
For grade ≥3 AEs (also including grade ≥2 cardiac dysfunction and renal dysfunction, etc.), dose interruption could occur.
Patients performed imaging evaluation at baseline, with computed tomography or magnetic resonance imaging of the chest, abdomen, pelvis, and brain. […] In the dose-expansion phase, tumor response was assessed every 6 weeks until 48 weeks and every 12 weeks thereafter until documented disease progression. If responses (CR or PR) were observed, repeat assessments were required to confirm the responses 4 weeks after the initial evaluation. Tumor responses were assessed by local investigators according to RECIST 1.1.
Safety parameters included TEAEs, SAEs, and TRAEs.

[5] = TEAE, Grade 1–2, total (n = 152)
[6] = TEAE, ≥Grade 3, total (n = 152)
[7] = TEAE, ≥Grade 3, dose: 30, 60, 90, 120, 180, 240, 300 mg
[8] = TRAE, ≥grade 3, dose: 30, 60, 90, 120, 180, 240, 300 mg

COc1cc(N2CCC3(CCN(C)CC3)CC2)ccc1Nc1ncc(Cl)c(Nc2ccccc2P(C)(C)=O)n1 [WX-0593]
Tmax ([1]; both sexes, cynomolgus monkey, plasma, oral gavage 0.5–8 mg/kg): 2 to 3.33 h
half-life ([1]; both sexes, cynomolgus monkey, plasma, oral gavage 0.5–8 mg/kg, read-out: plasma terminal half-life): 3.29 to 8.14 h
AUC(0-t) ([1]; both sexes, cynomolgus monkey, plasma, single IV 0.5 mg/kg, read-out: AUC0-24h): 323 ± 91.1 ng·h/mL
Vd ([1]; both sexes, cynomolgus monkey, plasma, single IV 0.5 mg/kg, read-out: apparent volume of distribution (Vdss)): 7.7 ± 1.24 L/kg
MRT inf ([1]; both sexes, cynomolgus monkey, plasma, single IV 0.5 mg/kg, read-out: mean residence time (MRT0-inf)): 5.03 ± 138 h
clearance ([1]; both sexes, cynomolgus monkey, plasma, single IV 0.5 mg/kg, read-out: plasma clearance (CL)): 26.8 ± 6.82 mL/min/kg
half-life ([1]; both sexes, cynomolgus monkey, plasma, single IV 0.5 mg/kg, read-out: plasma elimination half-life T1/2 (converted)): 4.37 ± 2.38 h
bioavailability ([1]; both sexes, cynomolgus monkey, plasma, single oral 0.5 mg/kg): 37.5%
bioavailability ([1]; both sexes, cynomolgus monkey, plasma, single oral 8 mg/kg): 74.7%
drug accumulation ([1]; oral 2 mg/kg, 7 consecutive days): no significant drug accumulation
absolute bioavailability ([1]; single oral 2 mg/kg): 46.6%
IC50 [2]: 584 nM
IC50 (Ba/F3 CD74-ROS1-S1986F): 22.4 nM
IC50 (Ba/F3 CD74-ROS1-S1986Y): 15.9 nM
growth inhibition [3]: somewhat inhibits the growth
Dizziness, patients n (%) [4]: 0
ALT elevated, patients n (%) [4, 5]: 39 (26%)
AST elevated, patients n (%) [4, 5]: 41 (27%)
CPK elevated, patients n (%) [4, 5]: 31 (20%)
Dizziness, patients n (%) [4, 5]: 16 (11%)
Headache, patients n (%) [4, 5]: 14 (9%)
Hypertension, patients n (%) [4, 5]: 24 (16%)
Hypertriglyceridemia, patients n (%) [4, 5]: 32 (21%)
Upper respiratory infection, patients n (%) [4, 5]: 16 (11%)
diarrhea, patients n (%) [4, 5]: 21 (14%)
hypercholesterolemia, patients n (%) [4, 5]: 42 (28%)
hyperlipidemia, patients n (%) [4, 5]: 21 (14%)
nausea, patients n (%) [4, 5]: 48 (32%)
rash, patients n (%) [4, 5]: 19 (13%)
γ-GGT elevated, patients n (%) [4, 5]: 12 (8%)
Headache, patients n (%) ([4]; TEAE, all grade, total (n = 152)): 14 (9%)
ALT elevated, patients n (%) [4, 6]: 6 (4%)
AST elevated, patients n (%) [4, 6]: 6 (4%)
CPK elevated, patients n (%) [4, 6]: 0
Headache, patients n (%) [4, 6]: 0
Hypertension, patients n (%) [4, 6]: 9 (6%)
Hypertriglyceridemia, patients n (%) [4, 6]: 5 (3%)
Upper respiratory infection, patients n (%) [4, 6]: 1 (1%)
diarrhea, patients n (%) [4, 6]: 1 (1%)
hypercholesterolemia, patients n (%) [4, 6]: 5 (3%)
hyperlipidemia, patients n (%) [4, 6]: 1 (1%)
nausea, patients n (%) [4, 6]: 0
rash, patients n (%) [4, 6]: 1 (1%)
vomiting, patients n (%) [4, 6]: 0
γ-GGT elevated, patients n (%) [4, 6]: 5 (3%)
CPK elevated, patients n (%) [4, 7]: 0
Dizziness, patients n (%) [4, 7]: 0
Headache, patients n (%) [4, 7]: 0
nausea, patients n (%) [4, 7]: 0
vomiting, patients n (%) [4, 7]: 0
ALT elevated, patients n (%) ([4]; TRAE, grade 1-2, total (n=152)): 38(25%)
AST elevated, patients n (%) ([4]; TRAE, grade 1-2, total (n=152)): 41(27%)
CPK elevated, patients n (%) ([4]; TRAE, grade 1-2, total (n=152)): 25(16%)
Hypertension, patients n (%) ([4]; TRAE, grade 1-2, total (n=152)): 18(12%)
Hypertriglyceridemia, patients n (%) ([4]; TRAE, grade 1-2, total (n=152)): 28(18%)
diarrhea, patients n (%) ([4]; TRAE, grade 1-2, total (n=152)): 21(14%)
hypercholesterolemia, patients n (%) ([4]; TRAE, grade 1-2, total (n=152)): 39(26%)
hyperlipidemia, patients n (%) ([4]; TRAE, grade 1-2, total (n=152)): 15(10%)
nausea, patients n (%) ([4]; TRAE, grade 1-2, total (n=152)): 43(28%)
rash, patients n (%) ([4]; TRAE, grade 1-2, total (n=152)): 15(10%)
vomiting, patients n (%) ([4]; TRAE, grade 1-2, total (n=152)): 37(24%)
γ-GGT elevated, patients n (%) ([4]; TRAE, grade 1-2, total (n=152)): 10(7%)
CPK elevated, patients n (%) ([4]; TRAE, ≥grade 3, total (n=152)): 0
diarrhea, patients n (%) ([4]; TRAE, ≥grade 3, total (n=152)): 1(1%)
hypercholesterolemia, patients n (%) ([4]; TRAE, ≥grade 3, total (n=152)): 1(1%)
hyperlipidemia, patients n (%) ([4]; TRAE, ≥grade 3, total (n=152)): 0
nausea, patients n (%) ([4]; TRAE, ≥grade 3, total (n=152)): 0
rash, patients n (%) ([4]; TRAE, ≥grade 3, total (n=152)): 1(1%)
vomiting, patients n (%) ([4]; TRAE, ≥grade 3, total (n=152)): 0
CPK elevated, patients n (%) [4, 8]: 0
hyperlipidemia, patients n (%) [4, 8]: 0
nausea, patients n (%) [4, 8]: 0
vomiting, patients n (%) [4, 8]: 0
maximum tolerated dose (MTD) ([4]; dose-escalation 30–300 mg): could not be identified; also recorded: not reached
dose-limiting toxicities (DLTs) ([4]; dose-escalation, 300 mg, in 1 of 3 patients: grade 3 QT interval prolonged, grade 2 chronic heart failure): Two
AE led to dose interruption, patients n (%) ([4]; total (n=152)): 30(20%)
AE led to dose interruption, treatment-related, patients n (%) ([4]; total (n=152)): 30 (20%) and 27(18%)
AE led to dose reduction, treatment-related, patients n (%) ([4]; total (n=152)): 4 (3%)
AE led to treatment termination, patients n (%) ([4]; total (n=152)): 11(7%)
Adverse events, total, patients n (%) ([4]; total (n=152)): 148 (97%)
Death during treatment, not related with disease progression, patients n (%) ([4]; total (n=152)): 6(4%)
Death during treatment, related with disease progression, patients n (%) ([4]; total (n=152)): 1(1%)
Discontinuation due to adverse event, patients n (%) ([4]; total (n=152)): 11(7%)
Discontinuation due to adverse event, treatment-related, patients n (%) ([4]; total (n=152)): 8(5%)
Serious adverse event, patients n (%) ([4]; total (n=152)): 25 (16%)
≥grade 3 adverse event, patients n (%) ([4]; total (n=152)): 53 (35%)
